US12157730B2, “Heteroaryl derivative, method for producing same, and pharmaceutical composition comprising same as effective component” (VORONOI INC., priority 2019, dated 2024)

The compounds below were run against T1, Ba/F3 cell EGFR Exon20 ins NPH (Homo sapiens, UniProt P00533, INS773NPH) (assay: Ba/F3 cell proliferation suppression, EGFR Exon20 ins NPH). Settings: GI50 class; Ba/F3 cell line with NPH inserted at Exon20 of EGFR; 72 hours.
T1 construct: expressed in transfected cells; host or cells: Ba/F3
Assay type: cell-based
Summary of the method: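 Growth suppression determined as GI50 following 72 h exposure across 12 concentrations up to 50 um, with viability by luminescent ATP assay (CellTiter-Glo).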
In the case of `C=CC(=O)Nc1cc(Nc2cc(N3OCC[C@@H]3c3cc(F)ccc3F)ncn2)c(OC)cc1N1CCC(N2CCN(CC)CC2)CC1` [compound 767, N-(5-((6-((R)-3-(2,5-difluorophenyl)isoxazolidine-2-yl)pyrimidine-4-yl)amino)-2-(4-(4-ethylpiperazine-1-yl)piperidine-1-yl)-4-methoxyphenyl) acrylamide], the “Ba/F3 (NPH) Activity” value is reported as “A (GI50 < 50 nM)”. In the case of `C=CC(=O)Nc1cc(Nc2cc(N3OCC[C@H]3Cc3ccccc3)ncn2)c(OC)cc1N1CCC(N2CCN(C3CC3)CC2)CC1` [compound 956, N-(5-((6-((R)-3-benzylisoxazolidine-2-yl)pyrimidine-4-yl)amino)-2-(4-(4-cyclopropylpiperazine-1-yl)piperidine-1-yl)-4-methoxyphenyl) acrylamide], the “Ba/F3 (NPH) Activity” value is reported as “C (500 nM ≤ GI50 < 5000 nM)”. With `C=CC(=O)Nc1cc(Nc2cc(N3OCC[C@@H]3c3ccccc3)ncn2)c(OC)cc1N1CCN(CC2CC2)CC1` [Example 277, N-(2-(4-(cyclopropylmethyl)piperazine-1-yl)-4-methoxy-5-((6-((R)-3-phenylisoxazolidine-2-yl)pyrimidine-4-yl)amino)phenyl) acrylamide] the “Ba/F3 (NPH) Activity” value was “A (GI50 < 50 nM)”. With `C=CC(=O)Nc1cc(Nc2cc(N3OCC[C@@H]3c3ccc(F)c(Cl)c3F)ncn2)c(OC)cc1N1CCC(N(C)C)CC1` [compound 638, N-(5-((6-((R)-3-(3-chloro-2,4-difluorophenyl)isoxazolidine-2-yl)pyrimidine-4-yl)amino)-2-(4-(dimethylamino)piperidine-1-yl)-4-methoxyphenyl) acrylamide] the “Ba/F3 (NPH) Activity” value was “A (GI50 < 50 nM)”. For `C=CC(=O)Nc1cc(Nc2cc(N3OCC[C@@H]3c3cccc(F)c3Cl)ncn2)c(OC)cc1N1CCN(CC)CC1` [compound 559, N-(5-((6-((R)-3-(2-chloro-3-fluorophenyl)isoxazolidine-2-yl)pyrimidine-4-yl)amino)-2-(4-ethylpiperazine-1-yl)-4-methoxyphenyl) acrylamide], the “Ba/F3 (NPH) Activity” value was “A (GI50 < 50 nM)”. For `C=CC(=O)Nc1cc(Nc2cc(N3OCC[C@@H]3c3cccc(F)c3Cl)ncn2)c(OC)cc1N1CC[C@@H](N(C)C)C1` [compound 558, N-(5-((6-((R)-3-(2-chloro-3-fluorophenyl)isoxazolidine-2-yl)pyrimidine-4-yl)amino)-2-((R)-3-(dimethylamino)pyrolidine-1-yl)-4-methoxyphenyl) acrylamide], the “Ba/F3 (NPH) Activity” value was “A (GI50 < 50 nM)”. For `C=CC(=O)Nc1cc(Nc2cc(N3OCC[C@@H]3c3cc(F)cc(F)c3)ncn2)c(OC)cc1N1CCC(N2CCN(CCN(C)C)CC2)CC1` [compound 753, N-(5-((6-((R)-3-(3,5-difluorophenyl)isoxazolidine-2-yl)pyrimidine-4-yl)amino)-2-(4-(4-(2-(dimethylamino)ethyl)piperazine-1-yl)piperidine-1-yl)-4-methoxyphenyl) acrylamide], the “Ba/F3 (NPH) Activity” value was “A (GI50 < 50 nM)”. For `C=CC(=O)Nc1cc(Nc2cc(N3OCC[C@@H]3c3ccc(Cl)c(Cl)c3)ncn2)c(OC)cc1N1C[C@@H]2C[C@H]1CO2` [compound 612, N-(2-((1S,4S)-2-oxa-5-azabicyclo[2.2.1]heptane-5-yl)-5-((6-((R)-3-(3,4-dichlorophenyl)isoxazolidine-2-yl)pyrimidine-4-l)amino)-4-methoxyphenyl) acrylamide], the “Ba/F3 (NPH) Activity” value was “A (GI50 < 50 nM)”. For `C=CC(=O)Nc1cc(Nc2cc(N3OCC[C@@H]3c3ccc(Cl)c(F)c3)ncn2)c(OC)cc1N1CCC(N2CC[C@@H](N(C)C)C2)CC1` [compound 800, N-(5-((6-((R)-3-(4-chloro-3-fluorophenyl)isoxazolidine-2-yl)pyrimidine-4-yl)amino)-2-(4-((R)-3-(dimethylamino)pyrolidine-1-yl)piperidine-1-yl)-4-methoxyphenyl) acrylamide], the “Ba/F3 (NPH) Activity” value was “A (GI50 < 50 nM)”. `C=CC(=O)Nc1cc(Nc2cc(N3OCC[C@@H]3c3ccc(C)nc3)ncn2)c(OC)cc1N1CCC(N2C[C@H]3C[C@@H]2CO3)CC1` [Example 227, N-(2-(4-((1R,4R)-2-oxa-5-azabicyclo[2.2.1]heptane-5-yl)piperidine-1-yl)-4-methoxy-5-((6-((R)-3-(6-methylpyridine-3-yl)isoxazolidine-2-yl)pyrimidine-4-yl)amino)phenyl)acrylamide] was tested, and the “Ba/F3 (NPH) Activity” value was “B (50 nM ≤ GI50 < 500 nM)”. In the case of `C=CC(=O)Nc1cc(Nc2cc(N3OCC[C@H]3Cc3ccccc3)ncn2)c(OC)cc1N1CCN(CC2CC2)CC1` [compound 967, N-(5-((6-((R)-3-benzylisoxazolidine-2-yl)pyrimidine-4-yl)amino)-2-(4-(cyclopropylmethyl)piperazine-1-yl)-4-methoxyphenyl) acrylamide], the “Ba/F3 (NPH) Activity” value is reported as “C (500 nM ≤ GI50 < 5000 nM)”. For `C=CC(=O)Nc1cc(Nc2cc(N3OCC[C@@H]3c3ccc(F)c(Cl)c3)ncn2)c(OC)cc1N1CCC(N2CCN(C3CC3)C(C)(C)C2)CC1` [Example 181, N-(5-((6-((R)-3-(3-chloro-4-fluorophenyl)isoxazolidine-2-yl)pyrimidine-4-yl)amino)-2-(4-(4-cyclopropyl-3,3-dimethylpiperazine-1-yl)piperidine-1-yl)-4-methoxyphenyl) acrylamide], the “Ba/F3 (NPH) Activity” value was “A (GI50 < 50 nM)”. `C=CC(=O)Nc1cc(Nc2cc(N3OCC[C@@H]3c3ccc(F)cc3F)ncn2)c(OC)cc1-n1cnc(C)c1` [compound 386, N-(5-((6-((R)-3-(2,4-difluorophenyl)isoxazolidine-2-yl)pyrimidine-4-yl)amino)-4-methoxy-2-(4-methyl-1H-imidazole-1-yl)phenyl)acrylamide] was tested, and the “Ba/F3 (NPH) Activity” value was “B (50 nM ≤ GI50 < 500 nM)”. In the case of `C=CC(=O)Nc1cc(Nc2cc(N3OCC[C@H]3Cc3ccccc3)ncn2)c(OC)cc1N1CCOCC1` [compound 966, N-(5-((6-((R)-3-benzylisoxazolidine-2-yl)pyrimidine-4-yl)amino)-4-methoxy-2-morpholinophenyl) acrylamide], the “Ba/F3 (NPH) Activity” value is reported as “C (500 nM ≤ GI50 < 5000 nM)”. For `C=CC(=O)Nc1cc(Nc2cc(N3OCC[C@@H]3c3ccc(Cl)c(Cl)c3)ncn2)c(OC)cc1N1CCN(CC)CC1` [compound 672, N-(5-((6-((R)-3-(3,4-dichlorophenyl)isoxazolidine-2-yl)pyrimidine-4-yl)amino)-2-(4-ethylpiperazine-1-yl)-4-methoxyphenyl) acrylamide], the “Ba/F3 (NPH) Activity” value was “A (GI50 < 50 nM)”. In the case of `C=CC(=O)Nc1cc(Nc2cc(N3OCC[C@@H]3c3ccc(Cl)c(Cl)c3F)ncn2)c(OC)cc1N1CCC(N2CCN(C(C)=O)CC2)CC1` [compound 774, N-(2-(4-(4-acetylpiperazine-1-yl)piperidine-1-yl)-5-((6-((R)-3-(3,4-dichloro-2-fluorophenyl)isoxazolidine-2-yl)pyrimidine-4-yl)amino)-4-methoxyphenyl) acrylamide], the “Ba/F3 (NPH) Activity” value is reported as “B (50 nM ≤ GI50 < 500 nM)”. `C=CC(=O)Nc1cc(Nc2cc(N3OCC[C@@H]3c3cccc(OC)c3)ncn2)c(OC)cc1N(C)CCN(C)C` [Example 24, N-(2-((2-(dimethylamino)ethyl) (methyl)amino)-4-methoxy-5-((6-((R)-3-(3-methoxyphenyl)isoxazolidine-2-yl)pyrimidine-4-yl)amino)phenyl) acrylamide] was tested, and the “Ba/F3 (NPH) Activity” value was “A (GI50 < 50 nM)”.
